How the values were obtained:
[1] = tested on: Bcl-2; assay: Western blot, Bcl-2 level; type: cell-based, human; conditions: HCT-116, 2.44 μM, 48 h
Method: In comparison to the control, compound 16 elevated the level of the proapoptotic protein (BAX) by 2.18 times. […] Furthermore, compound 16 enhanced the BAX/Bcl-2 ratio by 4.38-fold in comparison to control cells.
The effects of compound 16 on the expression of BAX, and Bcl‐2 were determined using Western blot analysis [62–64]as described in Electronic Supplementary Material S2.7 in S1 Appendix. […]
for 48 h. Then, the cells were fixed in 70% ethanol at 4 °C for 12 h. After that, the cells were washed with cold PBS, incubated with 100 μl RNase A at 37 °C for 30 min, and stained with 400 μl PI in the dark at room temperature for further 30 min. The stained cells were measured using Epics XL-MCL™ Flow Cytometer (Beckman Coulter), and the data were analyzed using Flowing software (version 2.5.1, Turku Centre for Biotechnology, Turku, Finland).
(§1) S2.6. Flow cytometry analysis for apoptosis
Flow cytometry cell apoptosis analysis was used to investigate the apoptotic effect of the synthesized compounds. […] The stained cells were measured using Epics XL-MCL™ Flow Cytometer and analyzed using Flowing software. […]
The proteins expression of BAX, and Bcl‐2 were determined using Western blot analysis. […] Total protein concentrations in the supernatant were determined colorimetrically using the Pierce 660 nm Protein Assay method (Thermo Fisher Scientific, Rockford, IL), with BSA as the standard. […]

[2] = tested on: HCT-116 cells; assay: Flow cytometry apoptosis analysis (Annexin V and PI double staining); type: cell-based, human; conditions: HCT-116, 2.44 μM, 48 h
Method: The Annexin V and PI double staining experiment was used to further investigate the apoptotic effect of compound 16 in HCT-116 cells. In this process, HCT-116 cells were treated with compound 16 at a concentration of 2.44 μM and incubated for 48 h. The apoptotic effect of compound 16 on HCT-116 cells was about nine times greater than that of untreated HCT-116 cells. In comparison to control cells (5.62%), compound 16 caused 48.82% programmed cell death (early apoptosis = 46.77% & late apoptosis = 2.05%) (Table 3 and Fig 4B).
Flow cytometry cell apoptosis analysis was used to investigate the apoptotic effect of compound 16 as follows.
[…] cells were treated with compound 16 (2.44 μM) for 48 h, collected by trypsin, centrifuged, washed two successive times with PBS, suspended in 500 μl binding buffer, and double stained with 5 μl Annexin V-FITC and 5 μl PI in the dark at room temperature for 15 min. The stained cells were measured using Epics XL-MCL™ Flow Cytometer and analyzed using Flowing software. […]
as §1
Flow cytometry cell apoptosis analysis was used to investigate the apoptotic effect of the synthesized compounds. […] cells were treated with compound 16 (2.44 µM) for 48 h, collected by trypsin, centrifuged, washed two successive times with PBS, suspended in 500 μl binding buffer, and double stained with 5 μl Annexin V-FITC and 5 μl PI in the dark at room temperature for 15 min. The stained cells were measured using Epics XL-MCL™ Flow Cytometer and analyzed using Flowing software.

In the case of `CCCNc1nc2ccccc2c2nnc(C(F)(F)F)n12` [Compound 16, N-Propyl-3-(trifluoromethyl)-[1,2,4]triazolo[4,3-c]quinazolin-5-amine], the “Reduction of Bcl-2 level compared to control” value [1] is reported as 1.9 fold, the “Protein expression (normalized to β-actin) Bcl-2” value ([1]; control = 1.00) is reported as 0.52 ± 0.08 and the “Apoptosis Early (Right Bottom)” value ([2]; mean ± SEM) is reported as 46.77 ± 0.83 %. For the same compound, the “Apoptosis Late (Right Top)” value ([2]; mean ± SEM) was 2.05 ± 0.92%, the “Necrosis (Left Top)” value ([2]; mean ± SEM) was 0.90 ± 0.36 and the “Viable (Left Bottom)” value ([2]; mean ± SEM) was 50.28 ± 2.10. For the same compound, the “Programmed cell death (early + late apoptosis)” value ([2]; control cells 5.62%) was 48.82%.

— publication PMC9886266, “New [1,2,4]triazolo[4,3-c]quinazolines as intercalative Topo II inhibitors: Design, synthesis, biological evaluation, and in silico studies” (PLOS ONE, 2023)
